From patent publication US10494602B1, “Functional astrocytes and cortical neurons from induced pluripotent stem cells and methods of use thereof” (The Board of Trustees of the Leland Stanford Junior …, priority 2015, dated 2019)
“Also recorded” adds a separate entry of the source.

Legend:
BMP signaling = conditions: cited from earlier work
Wnt signaling = conditions: TM3 cells; read-out: IC50, inhibition of Wnt signaling; cited from earlier work
TNKS2 = molecular target: T1, TNKS2 (Homo sapiens, UniProt Q9H2K2); conditions: cited from earlier work
T1 sequence (Q9H2K2 1-1166): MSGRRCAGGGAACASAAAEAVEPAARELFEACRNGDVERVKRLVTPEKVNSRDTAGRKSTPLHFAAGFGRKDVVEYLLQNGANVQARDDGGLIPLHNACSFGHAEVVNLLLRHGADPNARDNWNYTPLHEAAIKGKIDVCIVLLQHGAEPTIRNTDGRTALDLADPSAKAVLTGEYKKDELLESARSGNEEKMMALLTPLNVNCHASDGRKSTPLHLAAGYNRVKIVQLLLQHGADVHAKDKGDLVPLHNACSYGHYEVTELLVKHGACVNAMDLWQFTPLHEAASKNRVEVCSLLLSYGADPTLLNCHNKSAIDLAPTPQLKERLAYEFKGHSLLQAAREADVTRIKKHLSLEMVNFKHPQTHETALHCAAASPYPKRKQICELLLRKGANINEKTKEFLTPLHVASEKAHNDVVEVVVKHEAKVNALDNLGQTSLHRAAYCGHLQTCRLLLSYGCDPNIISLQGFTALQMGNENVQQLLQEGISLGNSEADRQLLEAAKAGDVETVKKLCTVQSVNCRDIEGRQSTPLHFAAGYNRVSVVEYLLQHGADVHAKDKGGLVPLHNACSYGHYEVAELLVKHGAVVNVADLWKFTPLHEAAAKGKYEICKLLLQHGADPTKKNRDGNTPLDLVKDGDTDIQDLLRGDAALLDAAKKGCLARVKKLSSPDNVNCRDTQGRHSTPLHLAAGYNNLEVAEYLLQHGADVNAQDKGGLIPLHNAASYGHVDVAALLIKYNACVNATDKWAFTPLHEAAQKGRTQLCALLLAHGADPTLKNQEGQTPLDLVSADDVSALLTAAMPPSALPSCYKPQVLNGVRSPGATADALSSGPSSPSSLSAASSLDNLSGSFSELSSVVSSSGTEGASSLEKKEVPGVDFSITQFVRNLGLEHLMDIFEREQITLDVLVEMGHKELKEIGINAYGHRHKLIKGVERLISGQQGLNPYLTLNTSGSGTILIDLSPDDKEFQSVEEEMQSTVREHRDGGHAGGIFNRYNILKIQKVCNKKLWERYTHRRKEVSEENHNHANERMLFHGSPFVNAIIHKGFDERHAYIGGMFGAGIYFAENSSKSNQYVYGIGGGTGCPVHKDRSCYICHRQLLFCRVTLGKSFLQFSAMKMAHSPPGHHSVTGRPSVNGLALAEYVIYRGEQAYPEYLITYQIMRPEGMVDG

PORCN [1] = conditions: HEK293 cells; read-out: IC50, Wnt3A-mediated activation of a multimerized TCF-binding site driving luciferase; cited from earlier work
[2] = system: Wnt-stimulated cellular responses; conditions: cited from earlier work
[3] = system: Wnt processing and secretion; conditions: cell-free assay; read-out: 1050, inhibition of Wnt processing and secretion; cited from earlier work
[4] = system: voltage-gated Na+ channels; assay type: cell-based, human
PORCN [5] = conditions: read-out: EC50, Porcn inhibition; cited from earlier work
[6] = molecular target: element-binding protein (CBP) (Homo sapiens, UniProt Q92793); conditions: cited from earlier work
Chain of element-binding protein (CBP) (Q92793 whole entry): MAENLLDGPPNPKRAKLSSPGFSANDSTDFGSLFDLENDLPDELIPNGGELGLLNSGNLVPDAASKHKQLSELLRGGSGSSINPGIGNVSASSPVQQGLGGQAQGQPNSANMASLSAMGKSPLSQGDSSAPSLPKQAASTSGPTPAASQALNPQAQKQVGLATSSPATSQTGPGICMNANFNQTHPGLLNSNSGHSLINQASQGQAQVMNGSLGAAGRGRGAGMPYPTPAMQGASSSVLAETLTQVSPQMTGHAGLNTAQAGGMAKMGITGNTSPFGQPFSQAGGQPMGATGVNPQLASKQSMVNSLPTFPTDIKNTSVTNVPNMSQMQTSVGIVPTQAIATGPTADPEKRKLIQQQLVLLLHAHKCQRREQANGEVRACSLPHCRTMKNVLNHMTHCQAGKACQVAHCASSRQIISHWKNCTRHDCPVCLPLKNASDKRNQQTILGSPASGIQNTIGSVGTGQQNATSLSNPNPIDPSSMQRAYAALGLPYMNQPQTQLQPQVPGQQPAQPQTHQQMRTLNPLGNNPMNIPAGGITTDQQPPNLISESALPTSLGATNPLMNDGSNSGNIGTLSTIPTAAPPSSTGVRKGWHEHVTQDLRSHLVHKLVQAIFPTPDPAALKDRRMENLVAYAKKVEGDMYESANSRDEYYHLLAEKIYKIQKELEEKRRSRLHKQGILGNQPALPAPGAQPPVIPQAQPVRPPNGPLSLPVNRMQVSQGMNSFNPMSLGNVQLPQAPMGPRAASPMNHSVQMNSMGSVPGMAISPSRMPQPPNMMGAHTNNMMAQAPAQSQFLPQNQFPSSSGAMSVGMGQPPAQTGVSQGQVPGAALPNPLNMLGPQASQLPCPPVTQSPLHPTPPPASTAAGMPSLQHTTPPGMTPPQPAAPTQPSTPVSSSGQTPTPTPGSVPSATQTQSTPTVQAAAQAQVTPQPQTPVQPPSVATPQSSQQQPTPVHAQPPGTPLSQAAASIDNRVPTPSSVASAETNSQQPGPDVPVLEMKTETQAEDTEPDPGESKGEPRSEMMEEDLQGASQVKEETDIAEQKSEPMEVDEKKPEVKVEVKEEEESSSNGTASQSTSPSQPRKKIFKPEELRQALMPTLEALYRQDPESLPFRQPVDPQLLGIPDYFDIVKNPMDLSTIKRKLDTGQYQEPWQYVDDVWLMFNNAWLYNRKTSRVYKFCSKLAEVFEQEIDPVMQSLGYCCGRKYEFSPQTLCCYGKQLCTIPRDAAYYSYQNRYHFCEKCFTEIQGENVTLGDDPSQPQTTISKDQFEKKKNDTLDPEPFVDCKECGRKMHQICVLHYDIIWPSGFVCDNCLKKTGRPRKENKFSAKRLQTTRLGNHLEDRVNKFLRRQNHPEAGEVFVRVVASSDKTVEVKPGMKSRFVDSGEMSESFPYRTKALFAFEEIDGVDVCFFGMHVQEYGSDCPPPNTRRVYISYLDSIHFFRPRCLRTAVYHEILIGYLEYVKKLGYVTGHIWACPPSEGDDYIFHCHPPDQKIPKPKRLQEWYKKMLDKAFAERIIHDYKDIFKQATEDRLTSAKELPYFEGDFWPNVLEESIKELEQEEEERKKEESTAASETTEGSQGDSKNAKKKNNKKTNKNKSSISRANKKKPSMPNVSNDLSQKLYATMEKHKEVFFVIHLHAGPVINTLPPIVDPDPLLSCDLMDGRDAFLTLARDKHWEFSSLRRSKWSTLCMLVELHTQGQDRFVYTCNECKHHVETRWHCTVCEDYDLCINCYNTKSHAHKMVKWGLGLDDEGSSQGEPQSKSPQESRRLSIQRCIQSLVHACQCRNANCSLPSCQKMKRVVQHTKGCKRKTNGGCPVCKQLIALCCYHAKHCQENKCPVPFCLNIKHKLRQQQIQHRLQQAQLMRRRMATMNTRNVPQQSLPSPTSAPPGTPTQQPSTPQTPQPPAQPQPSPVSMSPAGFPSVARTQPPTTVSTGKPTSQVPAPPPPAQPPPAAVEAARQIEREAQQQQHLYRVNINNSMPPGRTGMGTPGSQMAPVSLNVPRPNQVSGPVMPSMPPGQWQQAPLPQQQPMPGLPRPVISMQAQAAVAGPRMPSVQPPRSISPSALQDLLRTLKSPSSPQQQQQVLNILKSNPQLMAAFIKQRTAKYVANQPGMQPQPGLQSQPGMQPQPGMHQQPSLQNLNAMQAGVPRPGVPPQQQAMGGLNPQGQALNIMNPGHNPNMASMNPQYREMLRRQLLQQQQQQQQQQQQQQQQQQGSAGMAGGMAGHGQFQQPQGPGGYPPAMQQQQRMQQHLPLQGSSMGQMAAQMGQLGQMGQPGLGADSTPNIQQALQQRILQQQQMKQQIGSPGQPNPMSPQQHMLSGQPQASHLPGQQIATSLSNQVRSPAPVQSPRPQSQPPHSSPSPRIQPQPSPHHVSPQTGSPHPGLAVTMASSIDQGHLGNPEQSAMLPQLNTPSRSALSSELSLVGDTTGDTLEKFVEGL

[7] = system: spontaneous synaptic activity (EPSCs) of neurons in hCS slices; assay: Spontaneous EPSCs in acute hCS slice preparation (whole cell recording); assay type: cell-based, human; conditions: kynurenic acid 1 mM bath application; n=6 cells, P=0.0008
Method: hCS were removed from Neurobasal-B27 media, quickly fixed to a block of 4% agarose, and covered in ice-cold oxygenated (95% 02 and 5% CO2) ACSF containing 126 mM NaCl, 2.5 mM KCl, 1.25 mM NaH2PO4, 2 mM MgCl2, 2 mM CaCl2), 26 mM NaHCO3and 10 mM glucose. 250 μm thick slices were cut using a Leica VT1200 vibrating microtome. After slicing, sections were moved to continuously oxygenated warm (˜32° C.) ACSF. Slices were incubated in warm ACSF for at least one hour prior to recording.
Whole cell patch clamp recordings were made at 22-25° C. Slices were superfused at a rate of 3 ml/min. Patch-clamp recordings were made using a MultiClamp 700A amplifier with Clampex 10.3 software. 3-5 MO borosilicate glass recording electrodes were filled with internal solution containing 120 mM potassium gluconate, 11 mM KCl, 1 mM MgCl2, 1 mM CaCl2, 10 mM HEPES, 1 mM EGTA, pH adjusted to 7.4 with KOH (290 mOsm). To determine if EPSCs recorded in voltage clamp are glutamate dependent, the glutamate receptor blocker kynurenic acid (1 mM) was added to the bath solution following at minimum 5 min of baseline recording. Evoked responses were produced by extracellular monopolar tungsten electrode placed 100-300 μm from the whole cell recording. […]

Compound: NC(=O)c1ccc(-c2nc(-c3ccc4c(c3)OCO4)c(-c3ccccn3)[nH]2)cc1 [SB-431542]
- effect on BMP signaling (BMP signaling): no effect

Compound: Cc1cc(-c2ncc(CC(=O)Nc3ccc(-c4cnccn4)cn3)cc2C)ccn1 [LGK-974]
- IC50 (Wnt signaling): 0.4 nM

Compound: COc1ccc(-n2c(SCCCN3C(=O)c4cccc5cccc(c45)C3=O)nnc2-c2ccncc2)cc1 [WIKI4]
- IC50 (TNKS2): 15 nM

Compound: Wnt-059 (C59)
- IC50 (PORCN [1]): 0.074 nM

Compound: Cc1ccc2nc(NC(=O)CSc3nc4c(c(=O)n3-c3ccccc3)SCC4)sc2c1 [IWP-2]
- effect against Wnt-stimulated cellular responses [2]: no effect
- IC50 [3]: 27 nM

Compound: NC1=N[C@H](O)[C@H]2[C@H]3O[C@]4(O)O[C@@H]([C@@H](O)[C@@]2(N1)[C@@H]4O)[C@]3(O)CO [TTX, tetrodotoxin]
- block of transient inward voltage-gated Na+ current [4]: blocks

Compound: O=C(CSc1nc2c(c(=O)n1-c1ccccc1)SCC2)Nc1ccc(-c2ccccc2)cn1 [IWP-L6]
- EC50 (PORCN [5]): 0.5 nM

Compound: O=C1[C@H](Cc2ccc(O)cc2)N2C(=O)CCN(C(=O)NCc3ccccc3)[C@H]2CN1Cc1cccc2ccccc12 [ICG-001]
- IC50 [6]: 3000 nM

Compound: O=C(O)c1cc(=O)c2ccccc2[nH]1 [kynurenic acid]
- spontaneous synaptic activity (EPSCs) in sliced hCS [7]: significantly reduced; also recorded: blocked
